# Experiments:
# bedstraw = test: Test B pre/postemergence bedstraw; type: in vivo, Galium aparine
# Method in brief: (§1)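 Response is a visual 0-to-10 score relative to untreated plants, where 0 means no effect and 10 means complete control, taken twelve to sixteen days after application. Treatments went onto soil at planting and onto foliage of 1- to 4-leaf plants, using a surfactant-containing non-phytotoxic solvent.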
# blackgrass = test: Test B pre/postemergence blackgrass; type: in vivo, Alopecurus myosuroides
# Method in brief: as §1
# surinam grass = test: Test B pre/postemergence surinam grass; type: in vivo, Brachiaria decumbens
# Method in brief: as §1
# corn = test: Test B pre/postemergence corn; type: in vivo, Zea mays
# Method in brief: as §1
# crabgrass = test: Test B pre/postemergence crabgrass; type: in vivo, Digitaria sanguinalis
# Method in brief: as §1
# pigweed = test: Test B pre/postemergence pigweed; type: in vivo, Amaranthus retroflexus
# Method in brief: as §1
# rape = test: Test B pre/postemergence rape; type: in vivo, Brassica napus
# Method in brief: as §1
# soybean = test: Test B pre/postemergence soybean; type: in vivo, Glycine max
# Method in brief: as §1
# sugar beet = test: Test B pre/postemergence sugar beet; type: in vivo, Beta vulgaris
# Method in brief: as §1
# velvetleaf = test: Test B pre/postemergence velvetleaf; type: in vivo, Abutilon theophrasti
# Method in brief: as §1
# wheat = test: Test B pre/postemergence wheat; type: in vivo, Triticum aestivum
# Method in brief: as §1
# wild oat = test: Test B pre/postemergence wild oat; type: in vivo, Avena fatua
# Method in brief: as §1
# purple nutsedge = test: Test B pre/postemergence purple nutsedge; type: in vivo, Cyperus rotundus
# Method in brief: as §1
# rice = test: Test B flood test rice; type: in vivo, Oryza sativa
# Method in brief: (§2)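 Flood test on plants grown to the 2-leaf stage; treated plants kept in greenhouse twelve to sixteen days, then visually rated against controls on a 0 (no effect) to 10 (complete control) scale.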
# smallflower flatsedge = test: Test B flood test smallflower flatsedge; type: in vivo, Cyperus difformis
# Method in brief: as §2
# duck salad = test: Test B flood test duck salad; type: in vivo, Heteranthera limosa
# Method in brief: as §2
# [1] = Postemergence, Rate 62 g/ha, scale 0 to 10, 0 is no effect, 10 is complete control
# [2] = Postemergence, Rate 250 g/ha, scale 0 to 10, 0 no effect, 10 complete control
# [3] = Preemergence, Rate 62 g/ha, scale 0 to 10 (0 no effect, 10 complete control)
# [4] = Preemergence, Rate 125 g/ha, scale 0 to 10 (0 no effect, 10 complete control)
# [5] = Preemergence, Rate 250 g/ha, scale of 0 to 10 where 0 is no effect and 10 is complete control
# [6] = Preemergence, Rate 500 g/ha, scale 0 (no effect) to 10 (complete control)
# [7] = Rate 125 g/ha, Postemergence, scale 0 to 10, 0 no effect, 10 complete control
# [8] = Rate 500 g/ha, Postemergence, scale 0 to 10, 0 no effect, 10 complete control
# [9] = Postemergence, Rate 125 g/ha, scale of 0 to 10 where 0 is no effect and 10 is complete control
# [10] = Rate 250 g/ha, Postemergence, scale 0 to 10, 0 is no effect, 10 is complete control
# [11] = Postemergence (flood test species), Rate 125 g/ha, scale of 0 to 10 where 0 is no effect and 10 is complete control
# [12] = Rate 250 g/ha, Postemergence (flood test), scale 0 to 10, 0 is no effect, 10 is complete control
# [13] = Rate 500 g/ha, listed under Postemergence (flood test species), scale 0 to 10, 0 no effect, 10 complete control
smiles,measurement,setting,value
CCN(CC)C(=O)n1oc(=O)n(-c2cccc3c2CCCC3)c1=O [Compound 89],Bedstraw plant response rating,bedstraw; [1],0
same,Bedstraw plant response rating,bedstraw; [2],0
same,Bedstraw plant response rating,bedstraw; [3],0
same,"Plant response rating, Bedstraw",bedstraw; [4],0
same,"Plant response rating, Bedstraw",bedstraw; [5],0
same,Bedstraw plant response rating,bedstraw; [6],0
same,Bedstraw plant response rating,bedstraw; [7],0
same,Bedstraw plant response rating,bedstraw; [8],3
same,Blackgrass plant response rating,blackgrass; [1],0
same,Blackgrass plant response rating,blackgrass; [9],0
same,Blackgrass plant response rating,blackgrass; [2],0
same,Blackgrass plant response rating,blackgrass; [3],0
same,"Plant response rating, Blackgrass",blackgrass; [4],0
same,"Plant response rating, Blackgrass",blackgrass; [5],0
same,Blackgrass plant response rating,blackgrass; [6],0
same,Blackgrass plant response rating,blackgrass; [8],0
same,B. signalgrass plant response rating,surinam grass; [1],0
same,B. signalgrass plant response rating,surinam grass; [2],0
same,B. signalgrass plant response rating,surinam grass; [3],0
same,"Plant response rating, B. signalgrass",surinam grass; [4],0
same,"Plant response rating, B. signalgrass",surinam grass; [5],0
same,B. signalgrass plant response rating,surinam grass; [6],0
same,B. signalgrass plant response rating,surinam grass; [7],0
same,B. signalgrass plant response rating,"surinam grass; Rate 500 g/ha, Postemergence, scale of 0 to 10 where 0 is no effect and 10 is complete control",0
same,Corn plant response rating,corn; [1],0
same,Corn plant response rating,corn; [9],0
same,Corn plant response rating,corn; [2],0
same,Corn plant response rating,corn; [3],0
same,"Plant response rating, Corn",corn; [4],0
same,"Plant response rating, Corn",corn; [5],0
same,Corn plant response rating,corn; [6],0
same,Corn plant response rating,corn; [8],1
same,Crabgrass plant response rating,crabgrass; [1],0
same,Crabgrass plant response rating,crabgrass; [9],0
same,Crabgrass plant response rating,crabgrass; [2],0
same,Crabgrass plant response rating,crabgrass; [3],0
same,"Plant response rating, Crabgrass",crabgrass; [4],0
same,"Plant response rating, Crabgrass",crabgrass; [5],0
same,Crabgrass plant response rating,crabgrass; [6],2
same,Crabgrass plant response rating,crabgrass; [8],2
same,Redroot pigweed plant response rating,pigweed; [1],0
same,Redroot pigweed plant response rating,pigweed; [9],0
same,Redroot pigweed plant response rating,pigweed; [3],0
same,"Plant response rating, Redroot pigweed",pigweed; [4],0
same,"Plant response rating, Redroot pigweed",pigweed; [5],0
same,Redroot pigweed plant response rating,pigweed; [6],0
same,"Plant response rating, Redroot pigweed",pigweed; [10],0
same,Redroot pigweed plant response rating,pigweed; [8],5
same,Rape plant response rating,rape; [1],0
same,Rape plant response rating,rape; [9],0
same,Rape plant response rating,rape; [2],0
same,Rape plant response rating,rape; [3],0
same,"Plant response rating, Rape",rape; [4],0
same,"Plant response rating, Rape",rape; [5],0
same,Rape plant response rating,rape; [6],0
same,Rape plant response rating,rape; [8],0
same,Soybean plant response rating,soybean; [1],0
same,Soybean plant response rating,soybean; [9],0
same,Soybean plant response rating,soybean; [3],0
same,"Plant response rating, Soybean",soybean; [4],0
same,"Plant response rating, Soybean",soybean; [5],0
same,Soybean plant response rating,soybean; [6],0
same,"Plant response rating, Soybean",soybean; [10],0
same,Soybean plant response rating,soybean; [8],1
same,Sugarbeets plant response rating,sugar beet; [1],0
same,Sugarbeets plant response rating,sugar beet; [9],0
same,Sugarbeets plant response rating,sugar beet; [3],0
same,"Plant response rating, Sugarbeets",sugar beet; [4],0
same,"Plant response rating, Sugarbeets",sugar beet; [5],0
same,Sugarbeets plant response rating,sugar beet; [6],0
same,"Plant response rating, Sugarbeets",sugar beet; [10],0
same,Sugarbeets plant response rating,sugar beet; [8],6
same,Velvetleaf plant response rating,velvetleaf; [1],0
same,Velvetleaf plant response rating,velvetleaf; [9],0
same,Velvetleaf plant response rating,velvetleaf; [3],0
same,"Plant response rating, Velvetleaf",velvetleaf; [4],0
same,"Plant response rating, Velvetleaf",velvetleaf; [5],0
same,Velvetleaf plant response rating,velvetleaf; [6],0
same,"Plant response rating, Velvetleaf",velvetleaf; [10],0
same,Velvetleaf plant response rating,velvetleaf; [8],3
same,Wheat plant response rating,wheat; [1],0
same,Wheat plant response rating,wheat; [9],0
same,Wheat plant response rating,wheat; [3],0
same,"Plant response rating, Wheat",wheat; [4],0
same,"Plant response rating, Wheat",wheat; [5],0
same,Wheat plant response rating,wheat; [6],0
same,"Plant response rating, Wheat",wheat; [10],0
same,Wheat plant response rating,wheat; [8],0
same,Wild oats plant response rating,wild oat; [1],0
same,Wild oats plant response rating,wild oat; [9],0
same,Wild oats plant response rating,wild oat; [3],0
same,"Plant response rating, Wild oats",wild oat; [4],0
same,"Plant response rating, Wild oats",wild oat; [5],0
same,Wild oats plant response rating,wild oat; [6],0
same,"Plant response rating, Wild oats",wild oat; [10],0
same,Wild oats plant response rating,wild oat; [8],0
same,Nutsedge plant response rating,purple nutsedge; [1],0
same,Nutsedge plant response rating,purple nutsedge; [9],0
same,Nutsedge plant response rating,purple nutsedge; [2],0
same,Nutsedge plant response rating,purple nutsedge; [3],0
same,"Plant response rating, Nutsedge",purple nutsedge; [4],0
same,"Plant response rating, Nutsedge",purple nutsedge; [5],0
same,Nutsedge plant response rating,purple nutsedge; [6],0
same,Nutsedge plant response rating,purple nutsedge; [8],0
same,Rice plant response rating,rice; [11],0
same,Rice plant response rating,rice; [1],0
same,"Plant response rating, Rice",rice; [12],0
same,Rice plant response rating,rice; [13],0
same,S. Flatsedge plant response rating,smallflower flatsedge; [11],0
same,S. Flatsedge plant response rating,smallflower flatsedge; [1],0
same,"Plant response rating, S. Flatsedge",smallflower flatsedge; [12],0
same,S. Flatsedge plant response rating,smallflower flatsedge; [13],0
same,Ducksalad plant response rating,duck salad; [11],0
same,Ducksalad plant response rating,duck salad; [1],0
same,Ducksalad plant response rating,duck salad; [13],0
same,Ducksalad plant response rating,"duck salad; flood test, listed under Postemergence, Rate 250 g/ha, scale 0 to 10, 0 no effect, 10 complete control",0
